{"source": "the supplement of paper PMC10307832", "experiment_in_all_cases": "relative viability (nuclei count vs DMSO), 5 days (fraction); higher = more cells survive", "key": {"RERF-LC-KJ": {"tested_on": "RERF-LC-KJ", "how_it_was_run": "(§1)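 Relative viability was taken as the ratio of nuclei in treated wells to nuclei in vehicle wells. Lung cancer cell lines in 1536-well plates received compounds by pin tool one day after seeding, either one drug alone or a fixed anchor-drug dose plus five library-drug doses (not always all listed) in √10 steps. Nuclei were counted on 4× images after 5 days of treatment, and values are medians of duplicate plates.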"}, "A549": {"tested_on": "A549", "how_it_was_run": "as §1"}, "NCI-H1703": {"tested_on": "NCI-H1703", "how_it_was_run": "as §1"}, "NCI-H1299": {"tested_on": "NCI-H1299", "how_it_was_run": "as §1"}, "EBC-1": {"tested_on": "EBC-1", "how_it_was_run": "as §1"}, "NCI-H520": {"tested_on": "NCI-H520", "how_it_was_run": "as §1"}, "IA-LM": {"tested_on": "IA-LM", "how_it_was_run": "as §1"}, "NCI-H1651": {"tested_on": "NCI-H1651", "how_it_was_run": "as §1"}, "Calu-6": {"tested_on": "Calu-6", "how_it_was_run": "as §1"}}}
{"smiles": "NC(=O)Nc1cc(-c2cccc(F)c2)sc1C(=O)N[C@H]1CCCNC1", "note": "[AZD7762] + Cc1nc(NC(=O)N2CCC[C@H]2C(N)=O)sc1-c1ccnc(C(C)(C)C(F)(F)F)c1 [Alpelisib] (partner 2 µM)", "values": [{"measurement": "relative viability", "setting": "RERF-LC-KJ; first compound 0.01 µM", "result": 0.792}, {"measurement": "relative viability", "setting": "RERF-LC-KJ; first compound 0.03162 µM", "result": 0.773}, {"measurement": "relative viability", "setting": "RERF-LC-KJ; first compound 0.1 µM", "result": 0.787}, {"measurement": "relative viability", "setting": "RERF-LC-KJ; first compound 0.3162 µM", "result": 0.924}, {"measurement": "relative viability", "setting": "RERF-LC-KJ; first compound 1 µM", "result": 0.914}, {"measurement": "relative viability", "setting": "A549; first compound 0.01 µM", "result": 0.748}, {"measurement": "relative viability", "setting": "A549; first compound 0.03162 µM", "result": 0.86}, {"measurement": "relative viability", "setting": "A549; first compound 0.1 µM", "result": 0.83}, {"measurement": "relative viability", "setting": "A549; first compound 0.3162 µM", "result": 0.84}, {"measurement": "relative viability", "setting": "A549; first compound 1 µM", "result": 0.336}, {"measurement": "relative viability", "setting": "NCI-H1703; first compound 0.01 µM", "result": 0.314}, {"measurement": "relative viability", "setting": "NCI-H1703; first compound 0.03162 µM", "result": 0.224}, {"measurement": "relative viability", "setting": "NCI-H1703; first compound 0.1 µM", "result": 0.231}, {"measurement": "relative viability", "setting": "NCI-H1703; first compound 0.3162 µM", "result": 0.164}, {"measurement": "relative viability", "setting": "NCI-H1703; first compound 1 µM", "result": 0.146}, {"measurement": "relative viability", "setting": "NCI-H1299; first compound 0.01 µM", "result": 1.16}, {"measurement": "relative viability", "setting": "NCI-H1299; first compound 0.03162 µM", "result": 1.01}, {"measurement": "relative viability", "setting": "NCI-H1299; first compound 0.1 µM", "result": 1.03}, {"measurement": "relative viability", "setting": "NCI-H1299; first compound 0.3162 µM", "result": 1.04}, {"measurement": "relative viability", "setting": "NCI-H1299; first compound 1 µM", "result": 0.942}, {"measurement": "relative viability", "setting": "EBC-1; first compound 0.01 µM", "result": 0.952}, {"measurement": "relative viability", "setting": "EBC-1; first compound 0.03162 µM", "result": 0.714}, {"measurement": "relative viability", "setting": "EBC-1; first compound 0.1 µM", "result": 0.831}, {"measurement": "relative viability", "setting": "EBC-1; first compound 0.3162 µM", "result": 0.763}, {"measurement": "relative viability", "setting": "EBC-1; first compound 1 µM", "result": 0.367}, {"measurement": "relative viability", "setting": "NCI-H520; first compound 0.01 µM", "result": 1.05}, {"measurement": "relative viability", "setting": "NCI-H520; first compound 0.03162 µM", "result": 1.04}, {"measurement": "relative viability", "setting": "NCI-H520; first compound 0.1 µM", "result": 0.832}, {"measurement": "relative viability", "setting": "NCI-H520; first compound 0.3162 µM", "result": 0.635}, {"measurement": "relative viability", "setting": "NCI-H520; first compound 1 µM", "result": 0.371}, {"measurement": "relative viability", "setting": "IA-LM; first compound 0.01 µM", "result": 0.828}, {"measurement": "relative viability", "setting": "IA-LM; first compound 0.03162 µM", "result": 0.702}, {"measurement": "relative viability", "setting": "IA-LM; first compound 0.1 µM", "result": 0.885}, {"measurement": "relative viability", "setting": "IA-LM; first compound 0.3162 µM", "result": 1.07}, {"measurement": "relative viability", "setting": "IA-LM; first compound 1 µM", "result": 0.364}, {"measurement": "relative viability", "setting": "NCI-H1651; first compound 0.01 µM", "result": 0.918}, {"measurement": "relative viability", "setting": "NCI-H1651; first compound 0.03162 µM", "result": 0.849}, {"measurement": "relative viability", "setting": "NCI-H1651; first compound 0.1 µM", "result": 0.927}, {"measurement": "relative viability", "setting": "NCI-H1651; first compound 0.3162 µM", "result": 0.753}, {"measurement": "relative viability", "setting": "NCI-H1651; first compound 1 µM", "result": 0.33}, {"measurement": "relative viability", "setting": "Calu-6; first compound 0.01 µM", "result": 1.03}, {"measurement": "relative viability", "setting": "Calu-6; first compound 0.03162 µM", "result": 0.935}, {"measurement": "relative viability", "setting": "Calu-6; first compound 0.1 µM", "result": 0.881}, {"measurement": "relative viability", "setting": "Calu-6; first compound 0.3162 µM", "result": 0.411}, {"measurement": "relative viability", "setting": "Calu-6; first compound 1 µM", "result": 0.157}]}
{"smiles": "C=C1C(=O)O[C@@H](CCCCCCCC)[C@@H]1C(=O)O", "note": "[C-75] + CS(=O)(=O)CCNCc1ccc(-c2ccc3ncnc(Nc4ccc(OCc5cccc(F)c5)c(Cl)c4)c3c2)o1 [Lapatinib] (partner 2 µM)", "values": [{"measurement": "relative viability", "setting": "RERF-LC-KJ; first compound 0.08 µM", "result": 0.826}, {"measurement": "relative viability", "setting": "RERF-LC-KJ; first compound 0.253 µM", "result": 0.866}, {"measurement": "relative viability", "setting": "RERF-LC-KJ; first compound 0.8 µM", "result": 0.863}, {"measurement": "relative viability", "setting": "RERF-LC-KJ; first compound 2.53 µM", "result": 0.872}, {"measurement": "relative viability", "setting": "RERF-LC-KJ; first compound 8 µM", "result": 0.966}, {"measurement": "relative viability", "setting": "A549; first compound 0.08 µM", "result": 1.01}, {"measurement": "relative viability", "setting": "A549; first compound 0.253 µM", "result": 1.1}, {"measurement": "relative viability", "setting": "A549; first compound 0.8 µM", "result": 0.798}, {"measurement": "relative viability", "setting": "A549; first compound 2.53 µM", "result": 0.937}, {"measurement": "relative viability", "setting": "A549; first compound 8 µM", "result": 0.89}, {"measurement": "relative viability", "setting": "NCI-H1703; first compound 0.08 µM", "result": 1.17}, {"measurement": "relative viability", "setting": "NCI-H1703; first compound 0.8 µM", "result": 0.977}, {"measurement": "relative viability", "setting": "NCI-H1703; first compound 2.53 µM", "result": 1.17}, {"measurement": "relative viability", "setting": "NCI-H1703; first compound 8 µM", "result": 0.888}, {"measurement": "relative viability", "setting": "NCI-H1299; first compound 0.08 µM", "result": 0.971}, {"measurement": "relative viability", "setting": "NCI-H1299; first compound 0.253 µM", "result": 1}, {"measurement": "relative viability", "setting": "NCI-H1299; first compound 0.8 µM", "result": 0.935}, {"measurement": "relative viability", "setting": "NCI-H1299; first compound 2.53 µM", "result": 0.946}, {"measurement": "relative viability", "setting": "NCI-H1299; first compound 8 µM", "result": 0.955}, {"measurement": "relative viability", "setting": "EBC-1; first compound 0.08 µM", "result": 0.259}, {"measurement": "relative viability", "setting": "EBC-1; first compound 0.253 µM", "result": 0.237}, {"measurement": "relative viability", "setting": "EBC-1; first compound 0.8 µM", "result": 0.18}, {"measurement": "relative viability", "setting": "EBC-1; first compound 2.53 µM", "result": 0.243}, {"measurement": "relative viability", "setting": "EBC-1; first compound 8 µM", "result": 0.224}, {"measurement": "relative viability", "setting": "NCI-H520; first compound 0.08 µM", "result": 0.835}, {"measurement": "relative viability", "setting": "NCI-H520; first compound 0.253 µM", "result": 0.964}, {"measurement": "relative viability", "setting": "NCI-H520; first compound 0.8 µM", "result": 0.703}, {"measurement": "relative viability", "setting": "NCI-H520; first compound 2.53 µM", "result": 0.734}, {"measurement": "relative viability", "setting": "NCI-H520; first compound 8 µM", "result": 0.598}, {"measurement": "relative viability", "setting": "IA-LM; first compound 0.08 µM", "result": 0.816}, {"measurement": "relative viability", "setting": "IA-LM; first compound 0.253 µM", "result": 0.954}, {"measurement": "relative viability", "setting": "IA-LM; first compound 8 µM", "result": 0.476}, {"measurement": "relative viability", "setting": "NCI-H1651; first compound 0.08 µM", "result": 0.706}, {"measurement": "relative viability", "setting": "NCI-H1651; first compound 0.253 µM", "result": 0.853}, {"measurement": "relative viability", "setting": "NCI-H1651; first compound 0.8 µM", "result": 0.816}, {"measurement": "relative viability", "setting": "NCI-H1651; first compound 2.53 µM", "result": 0.747}, {"measurement": "relative viability", "setting": "NCI-H1651; first compound 8 µM", "result": 0.81}, {"measurement": "relative viability", "setting": "Calu-6; first compound 0.08 µM", "result": 1.03}, {"measurement": "relative viability", "setting": "Calu-6; first compound 0.253 µM", "result": 1.06}, {"measurement": "relative viability", "setting": "Calu-6; first compound 0.8 µM", "result": 1.04}, {"measurement": "relative viability", "setting": "Calu-6; first compound 2.53 µM", "result": 0.894}, {"measurement": "relative viability", "setting": "Calu-6; first compound 8 µM", "result": 0.925}]}
